# According to US4317775A (Hoffmann-La Roche Inc., priority 1980, dated 1982):
# “And” between values parts separate entries of the source, which are not always exact repeats. Identical values can stand only once. Counter-ions that a name gives are not always drawn. Like-named read-outs stand apart in the source and are kept apart here.
# Experiments:
# [1] = test system: Proteus vulgari; test: In vitro activity (MIC/MBC), Proteus vulgari; format: cell-based; details: for MBC: read-out: Minimum Inhibitory Concentration (MBC); for MIC: read-out: Minimum Inhibitory Concentration (MIC)
# Description: (§1) MIC is the Minimum Inhibitory Concentration. MBC is the Minimum Bactericidal Concentration.
# (§2) Results reported in Table 3(a) are reported as MIC defined above and results reported in Table 3(b) are reported as MBC defined above.
# [2] = test system: Streptococcus pyogenes; test: In vitro activity (MIC/MBC), Streptococcus pyogenes; format: cell-based
# Description: as §1, §2
# [3] = test system: E. coli; test: In vivo activity against systemic infection in mice, E. coli; details: in mg/kg
# Description: (§3) The PD50 is the protective dose for 50% of the animals treated against a challenge organism.
# [4] = test system: P. aeruginosa; test: In vivo activity against systemic infection in mice, P. aeruginosa
# Description: as §3
# [5] = test system: Escherichia coli; test: In vitro activity (MIC/MBC), Escherichia coli; format: cell-based
# Description: as §1, §2
# [6] = in vivo; details: mouse
# [7] = test system: S. pneumoniae I; test: In vivo activity against systemic infection in mice, S. pneumoniae I
# Description: as §3
# [8] = test system: Klebsiella pneumoniae; test: In vitro activity (MIC/MBC), Klebsiella pneumoniae; format: cell-based; details: for MIC: read-out: Minimum Inhibitory Concentration (MIC)
# Description: as §1, §2
# [9] = test system: P. mirabilis; test: In vivo activity against systemic infection in mice, P. mirabilis; details: in mg/kg
# Description: as §3
# [10] = test system: K. pneumoniae; test: In vivo activity against systemic infection in mice, K. pneumoniae; details: in mg/kg
# Description: as §3
# [11] = test system: S. pyogenes; test: In vivo activity against systemic infection in mice, S. pyogenes
# Description: as §3
# [12] = test system: S. pneumoniae II; test: In vivo activity against systemic infection in mice, S. pneumoniae II
# Description: as §3
# [13] = test system: Staphylococcus aureus; test: In vitro activity (MIC/MBC), Staphylococcus aureus; format: cell-based
# Description: as §1, §2
# [14] = test system: Streptococcus pneumonia II; test: In vitro activity (MIC/MBC), Streptococcus pneumonia II; format: cell-based; details: Streptococcus pneumoniae
# Description: as §1, §2
# [15] = test system: Streptococcus pneumoniae I; test: In vitro activity (MIC/MBC), Streptococcus pneumoniae I; format: cell-based; details: MBC, read-out: Minimum Inhibitory Concentration (MBC)
# Description: as §1, §2
# [16] = test system: Salmonella typhosa; test: In vitro activity (MIC/MBC), Salmonella typhosa; format: cell-based; details: Salmonella enterica
# Description: as §1, §2
# [17] = test system: Salmonella schottmuelleri; test: In vitro activity (MIC/MBC), Salmonella schottmuelleri; format: cell-based
# Description: as §1, §2
# [18] = Acute toxicity in mice
# [19] = test system: S. aureus; test: In vivo activity against systemic infection in mice, S. aureus; details: in mg/kg
# Description: as §3
# [20] = MBC, read-out: Minimum Inhibitory Concentration (MBC)
# [21] = read-out: Minimum Inhibitory Concentration (MIC)
smiles,measurement,setting,value
"CC1(C)S[C@@H]2[C@H](NC(=O)[C@H](NC3CCCS3)c3ccc(O)cc3)C(=O)N2[C@H]1C(=O)O (relative stereo) [Compound III, {2S-[2α,5α,6β(S*)]}-6-{[tetrahydro-2-thienylamino-(4-hydroxyphenyl)acetyl]amino}-3,3-dimethyl-7-oxo-4-thia-1-azabicyclo[3.2.0]heptane-2-carboxylic acid sodium salt]",MBC,[1],0.554 µg/mL
same,MIC,[1],0.554 µg/mL
same,MBC,[2]; [20],> 8.88 µg/mL
same,MIC,[2]; [21],0.554 µg/mL
same,PD50,[3]; oral,18.7
same,PD50,[3]; subcutaneous,19.4
same,PD50,[4]; oral,> 142 mg/kg
same,PD50,[4]; subcutaneous,> 142 mg/kg
same,MBC,[5]; [20],4.44 µg/mL
same,MIC,[5]; [21],4.44 µg/mL
same,LD50,[6]; ip,668 mg/kg
same,LD50,[6]; po,558 mg/kg
same,LD50,[6]; sc,598 mg/kg
same,PD50,[7]; oral,4.7 mg/kg
same,PD50,[7]; subcutaneous,2.5 mg/kg
same,MBC,[8]; [20],1.11 µg/mL
same,MIC,[8],0.554 µg/mL
same,PD50,[9]; oral,3.8
same,PD50,[9]; subcutaneous,2.5
same,PD50,[10]; oral,15.5
same,PD50,[10]; subcutaneous,5.3
same,PD50,[11]; oral,6.3 mg/kg
same,PD50,[11]; subcutaneous,4.1 mg/kg
same,PD50,[12]; oral,3.2 mg/kg
same,PD50,[12]; subcutaneous,3.2 mg/kg
same,MBC,[13]; [20],0.138 µg/mL
same,MIC,[13]; [21],0.138 µg/mL
"CC1(C)S[C@@H]2[C@H](NC(=O)[C@H](N)c3ccc(O)cc3)C(=O)N2[C@H]1C(=O)O [Amoxicillin, amoxicillin, reference compound]",MBC,[14]; [20],0.049 µg/mL
same,MIC,[14]; [21],0.024 µg/mL
same,MBC,[1],0.78 µg/mL
same,MIC,[1],1.56 µg/mL
same,PD50,[3]; oral,14.1 and 18.5 and 19.3 and 13.1
same,PD50,[3]; subcutaneous,10 and 5.9 and 7.3 and 6.8
same,PD50,[4]; oral,> 200 mg/kg
same,PD50,[4]; subcutaneous,> 200 mg/kg
same,MIC,[5]; [21],3.12 µg/mL
same,MIC,"[5]; read-out: Minimum Inhibitory Concentration (MIC), Escherichia coli",6.25 µg/mL
same,MBC,[15],0.024 µg/mL
same,MBC,"[16]; read-out: Minimum Inhibitory Concentration (MBC), MBC, Salmonella typhosa",0.39 µg/mL
same,MIC,"[16]; read-out: Minimum Inhibitory Concentration (MIC), Salmonella typhosa",0.39 µg/mL
same,MIC,[8],0.39 µg/mL
same,PD50,[9]; oral,1.8 and 1.1
same,PD50,[9]; subcutaneous,< 0.5 and 0.6
same,MBC,"[17]; MBC, Salmonella schottmuelleri, read-out: Minimum Inhibitory Concentration (MBC)",0.78 µg/mL
same,MIC,"[17]; Salmonella, read-out: Minimum Inhibitory Concentration (MIC)",0.78 µg/mL
same,PD50,[10]; subcutaneous,3.6 and 5 and 3.7
same,LD50,"[18]; mice, i.p.",3535 mg/kg and 3150 mg/kg
same,LD50,"[18]; mouse, in vivo, ip, LD50, mice",3140 mg/kg
same,LD50,"[18]; mouse, in vivo, po, LD50, mice",> 10000 mg/kg
same,LD50,"[18]; mouse, in vivo, sc, LD50, mice",> 10000 mg/kg
same,PD50,[19]; oral,0.5 and 0.6
same,PD50,[19]; subcutaneous,< 0.2
